Reference: patent US20230414637A1 (priority 2020, published 2023)
Converted amounts (≈) assume the structure as drawn. Like-named read-outs stand apart in the source and are kept apart here.

Legend:
[1] = cited from earlier work
[2] = test system: oxidative phosphorylation; settings: cited from earlier work
[3] = Dissolution of niclosamide solvates (water precipitate, acetone and ethanol recrystallized) at pH 9.3; settings: for solubility (equilibrium supernatant concentration several days after dissolution): pH 9.3; for initial dissolution rate, intrinsic parameter: pH 9.3 buffer, 3.5 mgs in 10 mls
Excerpt: To start to evaluate the various expected polymorphs and to try and obtain a morphology that was perhaps like the purchased materials (of unknown processing), three samples were made i.e., the “water-hydrate” precipitated from ethanol into excess water and two that were recrystallized from acetone and from ethanol.
It was filtered on a sintered glass filter, washed three times with deionized water, and dried. The material was ground by mortar and pestle ready for the dissolution test and viewed microscopically to evaluate its crystal morphology.
Each material was also viewed microscopically to evaluate their crystal morphologies.
Dissolution of the solvates. […] 2 uL aliquots were taken directly from the stirred solution in the 20 mL scintillation vial at appropriate time intervals and absorbance at 333 nm was measured by nanodrop spectrophotometer.

[4] = Literature aqueous solubility of niclosamide; settings: van Tonder et al [17], converted
GR = settings: read-out: relative trans-activation potency (EC50); cited from earlier work
[5] = for supernatant concentration reached at 3 hrs: more efficient stirring, pH 9.5, nominal 1 mM
[6] = same pH as Yomesan extraction (pH 9.3)
[7] = Equilibrium dissolution of AK Sci niclosamide versus pH (supernatant concentration by UV/Vis at 333 nm); settings: for Average [Nic] (uM) UV/Vis, 333 nm), supernatant concentration: 20° C.
[8] = type: physicochemical
Excerpt: pH=pKa+Log10[Nic−ve]/[NicOH] Eqn 1
pHp=pKa+log(S−So)/So Eqn 4
So=the molar intrinsic solubility of the undissociated acid (NicOH), and S=the molar concentration of the salt form initially added.

[9] = test system: SARS-CoV-2 in Vero 6 cells; settings: Vero 6 cells, Jeon et al [14]; read-out: IC50 for viral replication; cited from earlier work
[10] = pH 7.09
[11] = Supersaturated solution precipitation of niclosamide: amount in solution; settings: pH 9.3, equilibrated
[12] = Dissolution and conversion of Sigma niclosamide (3 hrs and overnight stirring)
[13] = test system: SARS-CoV-2 in Calu-3 cells; settings: Ko et al [34]; cited from earlier work

## CC(C)(C)c1cc(Cl)cc(C(=O)Nc2ccc([N+](=O)[O-])cc2Cl)c1O [S-13]
[1]; Terada [39]
  pKa: 6.57
[2]; Terada [39]
  concentration of uncoupling activity: 30 nM

## FC(F)(F)c1nc2c(Cl)c(Cl)c(Cl)c(Cl)c2[nH]1 [TTFB]
[1]; in 50% ethanol
  pKa: 5.5
[2]; Terada [39]
  concentration of uncoupling activity: 100 nM

## O=C(Nc1ccc([N+](=O)[O-])cc1Cl)c1cc(Cl)ccc1O [NicH20ppt]
[3]; listed as water solvate
  solubility (equilibrium supernatant concentration several days after dissolution): 132.6 µM (≈ 43.4 µg/mL)
[3]
  initial dissolution rate, intrinsic parameter: 0.104 µM/mg

## O.O=C(Nc1ccc([N+](=O)[O-])cc1Cl)c1cc(Cl)ccc1O [Monohydrates HA]
[4]
  solubility of crystal forms in distilled water: 2.9 µM

## O=C(Nc1ccc([N+](=O)[O-])cc1Cl)c1cc(Cl)ccc1O [NicEtOH-recrys]
[3]
  initial dissolution rate, intrinsic parameter: 0.0439 µM/mg

## O=C(Nc1ccc([N+](=O)[O-])cc1Cl)c1cc(Cl)ccc1O [AK Sci Niclosamide]
[5]; listed as AK Sci niclosamide
  supernatant concentration reached at 3 hrs: 564 µM
[5]; pH 8.62, nominal 1 mM, first hour
  fitted logarithmic dissolution rate, pre-ln factor: 22
[5]; pH 8.72, nominal 1 mM
  fitted logarithmic dissolution rate, pre-ln factor: 24
[5]; pH 9.06, nominal 1 mM
  fitted logarithmic dissolution rate, pre-ln factor: 38
[5]; pH 9.3 buffer
  initial rate of dissolution / extraction over first three minutes: 51.7 µM/min
[5]; pH 9.3 buffer, converted from uM/min
  intrinsic dissolution rate: 0.28 µg/s
[5]; pH 9.36, nominal 1 mM
  fitted logarithmic dissolution rate, pre-ln factor: 71
[6]
  clear supernatant solution concentration: 520 µM
[7]; measured pH 3.64, stirred to equilibrium (48 hrs)
  Average [Nic] (uM) UV/Vis, 333 nm), supernatant concentration: 2.53 µM
[7]; measured pH 7.05, 48 hrs
  Average [Nic] (uM) UV/Vis, 333 nm), supernatant concentration: 8.68 µM
[7]; measured pH 7.64, 48 hrs
  Average [Nic] (uM) UV/Vis, 333 nm), supernatant concentration: 16.75 µM
[7]; measured pH 8.06, 48 hrs
  Average [Nic] (uM) UV/Vis, 333 nm), supernatant concentration: 25.83 µM
[7]; measured pH 8.26, 48 hrs
  Average [Nic] (uM) UV/Vis, 333 nm), supernatant concentration: 47.26 µM
[7]; measured pH 8.53, 48 hrs
  Average [Nic] (uM) UV/Vis, 333 nm), supernatant concentration: 83.31 µM
[7]; measured pH 8.75, 48 hrs
  Average [Nic] (uM) UV/Vis, 333 nm), supernatant concentration: 137.29 µM
[7]; measured pH 9.04, 48 hrs
  Average [Nic] (uM) UV/Vis, 333 nm), supernatant concentration: 215.66 µM
[7]; measured pH 9.22, 48 hrs
  Average [Nic] (uM) UV/Vis, 333 nm), supernatant concentration: 344.32 µM
[7]; measured pH 9.32, 48 hrs
  Average [Nic] (uM) UV/Vis, 333 nm), supernatant concentration: 382.68 µM
[7]; measured pH 9.4, 48 hrs
  Average [Nic] (uM) UV/Vis, 333 nm), supernatant concentration: 466.14 µM
[7]; measured pH 9.63, 48 hrs
  Average [Nic] (uM) UV/Vis, 333 nm), supernatant concentration: 703.26 µM
[7]; pH 3.66
  limiting (intrinsic) solubility So of the protonated acid: 2.53 µM
[7]; stirred 24 hrs and longer, days, in presence of original powder
  polymorph stability of excess powder in stirred buffer: did not readily convert to the less soluble hydrates
[8]; So 2.53 uM
  pKa fitted from pHp curve to supernatant concentration data: 7.12
[3]
  solubility (equilibrium supernatant concentration several days after dissolution): ~383 µM (≈ 125 µg/mL)

## Cc1cccc(C)c1OCC(=O)N[C@@H](Cc1ccccc1)[C@@H](O)C[C@H](Cc1ccccc1)NC(=O)[C@H](C(C)C)N1CCCNC1=O [lopinavir]
[9]
  IC50: 7.28 µM

## O.O=C(Nc1ccc([N+](=O)[O-])cc1Cl)c1cc(Cl)ccc1O [presumed monohydrate]
[8]; pH 6
  expected concentration in solution from pHp model: 1 uM
[10]
  solubility: 1.24 µM

## CC(C)(C)c1cc(C=C(C#N)C#N)cc(C(C)(C)C)c1O [SF 6847, 3,5-Di-tert-butyl-4-hydroxy-benzylidene-Malononitrile]
[1]; Terada [39]
  pKa: 6.83
[2]; Terada [39]
  concentration of uncoupling activity: 10 nM

## O.O=C(Nc1ccc([N+](=O)[O-])cc1Cl)c1cc(Cl)ccc1O [Monohydrates HB]
[4]
  solubility of crystal forms in distilled water: 1.87 µM

## CCC(=O)O[C@]1(C(=O)SCF)[C@H](C)C[C@H]2[C@@H]3C[C@H](F)C4=CC(=O)C=C[C@]4(C)[C@@]3(F)[C@@H](O)C[C@@]21C [fluticasone propionate]
GR
  EC50: 0.32 ± 0.04 nM

## O=C(Nc1ccc([N+](=O)[O-])cc1Cl)c1cc(Cl)ccc1O [Nic−ve]
[7]; pH 9.5
  solubility limit of the negatively charged salt: ~640 µM
[7]; pH 9.63
  solubility limit of the deprotonated salt: at least 703.6 uM
[7]; pH not stated at the place
  solubility limit of the negatively charged salt: ≥ 670 µM

## O=C(Nc1ccc([N+](=O)[O-])cc1Cl)c1cc(Cl)ccc1O [precipitated material]
[11]
  solubility of material precipitated in situ from supersaturated solution: 180.9 µM

## O=C(Nc1ccc([N+](=O)[O-])cc1Cl)c1cc(Cl)ccc1O [Sigma niclosamide]
[5]
  supernatant concentration reached at 3 hrs: 680 µM
[5]; pH 9.44 buffer, more optimized (standardized) stirring
  fitted logarithmic dissolution rate, factor of ln(x): 116
[12]; over the whole pH range
  reduction of amount of niclosamide in supernatant solution after overnight equilibration: ~3.5 ×
[12]; pH 9.3
  solubility after overnight equilibration: 103 µM (≈ 33.7 µg/mL)
[12]; several hours after the first 3 hrs
  polymorph stability of excess powder in stirred buffer: converted to a much lower solubility polymorph
[12]; ~pH 9.5
  loss of material concentration from 3 hrs to 24 hrs: 434 µM
  supernatant niclosamide concentration at 3 hrs: 681 µM
[12]; ~pH 9.5, filtered 0.22 um
  supernatant niclosamide concentration after 24 hrs (overnight stirring): 247 µM

## N#CC(C#N)=NNc1ccc(OC(F)(F)F)cc1 [FCCP]
[2]
  concentration of uncoupling activity: 100 nM

## N=C(N)c1ccc2cc(OC(=O)c3ccc(N=C(N)N)cc3)ccc2c1 [Nafamostat]
[13]
  antiviral activity: few nanomolar

## Oc1c(Cl)c(Cl)c(Cl)c(Cl)c1Cl [PCP]
[1]; Terada [39]
  pKa: 4.80
[2]; Terada [39]
  concentration of uncoupling activity: 1000 nM

## O=C(O)c1ccccc1Nc1cccc(C(F)(F)F)c1 [flufenamic acid]
[1]; Terada [39]
  pKa: 3.85
[2]; Terada [39]
  concentration of uncoupling activity: 50000 nM

## CCN(CC)CCCC(C)Nc1ccnc2cc(Cl)ccc12 (centres unmarked) [chloroquine]
[9]
  IC50: 9.12 µM

## O=C(Nc1ccc([N+](=O)[O-])cc1Cl)c1cc(Cl)ccc1O [NicAcetone-recrys]
[3]; listed as acetone recrystallized material
  solubility (equilibrium supernatant concentration several days after dissolution): 79.4 µM (≈ 26 µg/mL)
[3]
  initial dissolution rate, intrinsic parameter: 0.0369 µM/mg

## O=C(Nc1ccc([N+](=O)[O-])cc1Cl)c1cc(Cl)ccc1O [Anhydrate]
[4]
  solubility of crystal forms in distilled water: 40.4 µM
